{"source": "patent US12139458B2", "about": "“(2,5-dioxopyrrolidin-1-yl)(phenyl)-acetamide derivatives and their use in the treatment of neurological diseases” (UNIWERSYTET JAGIELLONSKI, priority 2019, dated 2024)", "key": {"[1]": {"test_system": "voltage-dependent sodium channels in the prefrontal cortex pyramidal neurons", "test": "In vitro electrophysiological study of sodium currents", "format": "cell-based, Rats", "protocol": "The experiments were carried out in accordance with institutional and international guidelines regarding the ethics of animal research. Rats (3 weeks old) were anesthetized with ethyl chloride and decapitated. The brains were then removed and placed in ice-cold extracellular fluid. The methodology of slice preparation and pre-incubation has been described earlier (Szulczyk, B.; Nurowska, E. Biochem. Biophys. Res. Commun. 2017, 491, 291-295). The sections containing the prefrontal cortex were enzymatically and mechanically dispersed. Single prefrontal cortex pyramidal neurons were visualized using an inverted microscope (Nikon). Sodium currents were induced by rectangular depolarizing stimuli. The potential between depolarizing stimuli was maintained at −65 mV. […]\nThe extracellular fluid washing the neurons contained (in mM): NaCl (30), choline chloride (90), TEA-Cl (30), CaCl2 (2), MgCl2 (2), glucose (15), HEPES (10), LaCl3 (0.001) and CdCl2 (0.4) (pH 7.4). Currents were recorded using an Axopatch 1D amplifier and analyzed using pClamp software (Axon Instruments and Molecular Devices, USA). […]\nThe patch membrane was ruptured by suction or by an electrical stimulus, and then membrane capacitance was compensated. […] The leakage current was subtracted from the recorded currents. […]"}, "P-glycoprotein (Pgp)": {"target": "T1, P-glycoprotein (Pgp) (Homo sapiens, UniProt P08183)", "T1 construct": "purchased Promega (Madison, WI, USA)", "T1 sequence (P08183 whole entry)": "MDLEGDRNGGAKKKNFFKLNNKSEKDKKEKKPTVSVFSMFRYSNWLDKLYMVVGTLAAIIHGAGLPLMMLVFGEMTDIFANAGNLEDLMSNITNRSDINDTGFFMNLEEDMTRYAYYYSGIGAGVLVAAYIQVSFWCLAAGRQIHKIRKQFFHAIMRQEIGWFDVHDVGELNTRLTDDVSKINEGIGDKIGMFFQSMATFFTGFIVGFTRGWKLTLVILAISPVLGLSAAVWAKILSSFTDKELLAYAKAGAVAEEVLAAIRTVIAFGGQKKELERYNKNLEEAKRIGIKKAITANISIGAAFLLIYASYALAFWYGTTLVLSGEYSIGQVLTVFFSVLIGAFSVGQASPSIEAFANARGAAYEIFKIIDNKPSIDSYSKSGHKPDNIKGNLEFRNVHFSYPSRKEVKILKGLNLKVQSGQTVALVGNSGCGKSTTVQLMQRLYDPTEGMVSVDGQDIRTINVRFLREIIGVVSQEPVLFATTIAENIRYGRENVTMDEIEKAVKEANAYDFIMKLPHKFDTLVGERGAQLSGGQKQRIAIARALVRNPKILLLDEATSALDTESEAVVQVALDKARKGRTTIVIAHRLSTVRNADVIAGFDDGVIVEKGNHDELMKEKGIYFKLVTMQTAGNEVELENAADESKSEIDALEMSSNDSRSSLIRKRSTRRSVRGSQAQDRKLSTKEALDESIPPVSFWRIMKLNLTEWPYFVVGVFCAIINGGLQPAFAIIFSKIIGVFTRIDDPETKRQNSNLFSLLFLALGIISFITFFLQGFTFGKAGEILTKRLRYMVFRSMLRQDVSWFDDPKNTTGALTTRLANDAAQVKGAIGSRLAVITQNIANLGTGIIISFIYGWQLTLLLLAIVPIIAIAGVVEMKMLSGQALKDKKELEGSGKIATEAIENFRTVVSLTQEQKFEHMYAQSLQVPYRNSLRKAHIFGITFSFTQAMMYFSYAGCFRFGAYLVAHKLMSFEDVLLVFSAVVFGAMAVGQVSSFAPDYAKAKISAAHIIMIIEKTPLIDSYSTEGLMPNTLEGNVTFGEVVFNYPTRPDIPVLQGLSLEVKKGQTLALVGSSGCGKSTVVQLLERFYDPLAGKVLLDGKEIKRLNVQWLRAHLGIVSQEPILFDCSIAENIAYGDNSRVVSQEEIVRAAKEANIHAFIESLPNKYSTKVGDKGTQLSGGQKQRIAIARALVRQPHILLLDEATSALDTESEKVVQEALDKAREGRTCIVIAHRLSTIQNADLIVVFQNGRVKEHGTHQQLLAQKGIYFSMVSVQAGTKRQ", "test": "Pgp-Glo Assay System (Pgp activity)", "format": "in vitro ADME", "excerpt": "Impact on Pgp activity. P-glycoprotein (Pgp) is an integral plasma membrane protein that, as an ATP-dependent […] pump, actively removes xenobiotics and can cause drug interactions. Pgp plays an important role in the absorption of drugs in the gastrointestinal tract and also through the blood-brain barrier. A commercial bioluminescent Pgp-Glo™ Assay System test (Promega, Madison, WI, USA) was used to study the effect of compound 6 on Pgp activity. The operation of the test is based on measuring changes in the level of ATP consumed by membranes containing the recombinant Pgp protein in the presence of test compounds. The results were presented as % of baseline activity and compared to reference compounds: selective Pgp inhibitor Na3VO4 and verapamil stimulator.\nImpact on Pgp activity—methodology. The tests were performed according to the protocol of the bioluminescent Pgp-Glo™ Assay System test provided by the Promega company (Madison, WI, USA). […] Bioluminescence was measured with a PerkinElmer multispecific EnSpire plate reader (Waltham, MA USA). […] The calculated difference between the luminescence values of the inhibitor-treated sample and the control sample was taken as 100% of the Pgp base activity and treated as a negative control in the test. […] Statistical significance was calculated by one-way ANOVA variance analysis and the Bonferroni method using GraphPad Prism 5. […]"}, "[2]": {"test_system": "male Swiss albino mice (CD-1)", "test": "Psychomotor seizure test 6 Hz (32 mA)", "format": "in vivo", "summary_of_the_method": "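Compounds given i.p. in 1% aqueous Tween 30 min before a 3 s ocular stimulus (32 mA and/or 44 mA, 6 pulses/s) after lidocaine; mice normal within 10 s counted protected. ED50 from 3-4 groups of 6 mice; screening on groups of 4.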"}}}
{"smiles": "O=C(C(c1ccccc1)N1C(=O)CCC1=O)N1CCN(c2cccc(C(F)(F)F)c2)CC1", "note": "(racemic) [Compound 6, 1-(2-Oxo-1-phenyl-2-(4-(3-(trifluoromethyl)phenyl)piperazin-1-yl)ethyl)pyrrolidine-2,5-dione]", "values": [{"measurement": "maximum amplitude of sodium currents normalized to control (1.0)", "setting": "[1]; 100 μM, in the presence of the compound, holding -65 mV", "result": "0.59±0.08"}, {"measurement": "sodium current amplitude normalized to control after washing out", "setting": "[1]; after wash-out of 100 μM, n=5", "result": "0.79±0.07"}, {"measurement": "effect on Pgp activity", "setting": "P-glycoprotein (Pgp); 50 μM", "result": "no effect on Pgp activity"}, {"measurement": "Pgp activity, % of baseline activity", "setting": "P-glycoprotein (Pgp); 100 μM, inhibitory effect, p<0.01", "result": 38, "unit": "%"}, {"measurement": "ED50", "setting": "[2]; Mus musculus, ip, 0.5 h, mice", "result": 22.4, "unit": "mg/kg"}, {"measurement": "responders at 100 mg/kg", "setting": "[2]; Mus musculus, ip, screening, 100 mg/kg i.p., 0.5 h, mice, read-out: 6 Hz (32 mA): number of mice protected/number of mice tested (converted)", "result": 100, "unit": "%"}, {"measurement": "mice protected in the 6 Hz (32 mA) test", "setting": "[2]; screening, 100 mg/kg, time point 0.5 h", "result": 100, "unit": "%"}]}
